Test results as given in ChEMBL document CHEMBL1151784, “Antibiotic evaluation and in vivo analysis of alkynyl Coenzyme A antimetabolites in Escherichia coli” (2008).
Values after ≈ are worked out from the molar mass of the structure shown. One block for each molecule: values may come before it.

What was measured:
Assay type in all cases: functional
Conditions in all cases: K12, 24 h
Escherichia coli [1] = experiment: Antibacterial activity against Escherichia coli K12 in M9 minimal medium after 24 hrs by broth dilution method in presence of pantothenate
Escherichia coli [2] = experiment: Antibacterial activity against Escherichia coli K12 in M9 minimal medium after 24 hrs by broth dilution method
Escherichia coli [3] = experiment: Antibacterial activity against Escherichia coli K12 in tryptone broth after 24 hrs by broth dilution method
Escherichia coli [4] = experiment: Antibacterial activity against Escherichia coli K12 in M9 minimal medium after 24 hrs by broth dilution method in presence of beta-alanine

Structure (SMILES): C#CCCC(=O)NCCNC(=O)CCNC(=O)[C@H](O)C(C)(C)CO
MIC (Escherichia coli [2]): > 500 µM
MIC (Escherichia coli [3]): > 500 µM

Structure (SMILES): C#CCNC(=O)CCNC(=O)[C@H](O)C(C)(C)CO
MIC (Escherichia coli [1]): > 500 µM
MIC (Escherichia coli [2]): 4 µM (≈ 1.03 µg/mL)
MIC (Escherichia coli [3]): > 500 µM
MIC (Escherichia coli [4]): > 500 µM

Structure (SMILES): CCC(=O)OCCNC(=O)CCNC(=O)[C@H](O)C(C)(C)CO
MIC (Escherichia coli [2]): 500 µM (≈ 159 µg/mL)
MIC (Escherichia coli [3]): > 500 µM

Structure (SMILES): C=CC(=O)NCCNC(=O)CCNC(=O)[C@H](O)C(C)(C)CO
MIC (Escherichia coli [2]): 500 µM (≈ 158 µg/mL)
MIC (Escherichia coli [3]): > 500 µM

Structure (SMILES): C#CCCCCNC(=O)CCNC(=O)[C@H](O)C(C)(C)CO
MIC (Escherichia coli [2]): 500 µM (≈ 149 µg/mL)
MIC (Escherichia coli [3]): > 500 µM

Structure (SMILES): C#CC(=O)NCCNC(=O)CCNC(=O)[C@H](O)C(C)(C)CO
MIC (Escherichia coli [2]): > 500 µM
MIC (Escherichia coli [3]): > 500 µM

Structure (SMILES): CCOC(=O)NCCNC(=O)CCNC(=O)[C@H](O)C(C)(C)CO
MIC (Escherichia coli [2]): > 500 µM
MIC (Escherichia coli [3]): > 500 µM

Structure (SMILES): CCC(=O)NCCNC(=O)CCNC(=O)[C@H](O)C(C)(C)CO
MIC (Escherichia coli [2]): > 500 µM
MIC (Escherichia coli [3]): > 500 µM

Second part, the molecule after the results:

MIC (Escherichia coli [1]): > 500 µM
MIC (Escherichia coli [2]): 7.5 µM (≈ 2.03 µg/mL)
MIC (Escherichia coli [3]): > 500 µM
MIC (Escherichia coli [4]): > 500 µM
Structure (SMILES): C#CCCNC(=O)CCNC(=O)[C@H](O)C(C)(C)CO

MIC (Escherichia coli [1]): 250 µM
MIC (Escherichia coli [2]): 3 µM (≈ 0.775 µg/mL)
MIC (Escherichia coli [3]): > 500 µM
MIC (Escherichia coli [4]): 125 µM
Structure (SMILES): C=CCNC(=O)CCNC(=O)[C@H](O)C(C)(C)CO

MIC (Escherichia coli [1]): > 500 µM
MIC (Escherichia coli [2]): 15 µM (≈ 4.27 µg/mL)
MIC (Escherichia coli [3]): > 500 µM
MIC (Escherichia coli [4]): > 500 µM
Structure (SMILES): C#CCCCNC(=O)CCNC(=O)[C@H](O)C(C)(C)CO

MIC (Escherichia coli [2]): 500 µM (≈ 92.6 µg/mL)
MIC (Escherichia coli [3]): > 500 µM
Structure (SMILES): C#CCNC(=O)[C@H](O)C(C)(C)CO

MIC (Escherichia coli [1]): 500 µM
MIC (Escherichia coli [2]): 1 µM (≈ 0.26 µg/mL)
MIC (Escherichia coli [3]): 500 µM (≈ 130 µg/mL)
MIC (Escherichia coli [4]): 250 µM
Structure (SMILES): CCCNC(=O)CCNC(=O)[C@H](O)C(C)(C)CO

MIC (Escherichia coli [2]): > 500 µM
MIC (Escherichia coli [3]): > 500 µM
Structure (SMILES): CC(C)(CO)[C@@H](O)C(=O)NCCC(=O)NCCN=[N+]=[N-]

MIC (Escherichia coli [1]): 500 µM
MIC (Escherichia coli [2]): 6 µM (≈ 1.73 µg/mL)
MIC (Escherichia coli [3]): 50 µM (≈ 14.4 µg/mL)
MIC (Escherichia coli [4]): 250 µM
Structure (SMILES): CCCCCNC(=O)CCNC(=O)[C@H](O)C(C)(C)CO
